Values of other authors, collected in PubChem BioAssay AID1259409 (Chemical Carcinogenesis Research Information System (CCRIS), 2018).

System: rodent chemically induced tumor inhibition, incidence and multiplicity
Test: CCRIS tumor inhibitor studies
Conditions: Promoter: NONE USED

## Cc1cc(C(C)(C)C)c(O)c(C(C)(C)C)c1
Carcinogen: N-BIS(2-HYDROXYPROPYL)NITROSAMINE, 53609-64-6, Dose [Inhibitor]: 0, 1% IN DIET FOR 30 WK BEGINNING POST CARCINOGEN TREATMENT (STUDY DURATION: 32 WK), Route [Inhibitor]: ORAL, Species: RAT, Strain/Sex: F344/MALE, Target Tissue: Type of Lesion: LUNG: ADENOMA, Dose [Carcinogen]: 0.1% IN DRINKING WATER FOR 2 WK
  tumour outcome (control, treated, inhibition, significance): 100%, 85%, 15%, not calculated
Carcinogen: N-BIS(2-HYDROXYPROPYL)NITROSAMINE, 53609-64-6, Dose [Inhibitor]: 0, 1% IN DIET FOR 30 WK BEGINNING POST CARCINOGEN TREATMENT (STUDY DURATION: 32 WK), Route [Inhibitor]: ORAL, Species: RAT, Strain/Sex: F344/MALE, Target Tissue: Type of Lesion: LUNG: CARCINOMA, Dose [Carcinogen]: 0.1% IN DRINKING WATER FOR 2 WK
  tumour outcome (control, treated, inhibition, significance): 45%, 5%, 89%, p<0.01
Carcinogen: N-BIS(2-HYDROXYPROPYL)NITROSAMINE, 53609-64-6, Dose [Inhibitor]: 0, 1% IN DIET FOR 30 WK BEGINNING POST CARCINOGEN TREATMENT (STUDY DURATION: 32 WK), Route [Inhibitor]: ORAL, Species: RAT, Strain/Sex: F344/MALE, Target Tissue: Type of Lesion: THYROID: ADENOMA, Dose [Carcinogen]: 0.1% IN DRINKING WATER FOR 2 WK
  tumour outcome (control, treated, inhibition, significance): 5%, 60%, -1100%, not calculated
Carcinogen: N-BIS(2-HYDROXYPROPYL)NITROSAMINE, 53609-64-6, Dose [Inhibitor]: 0, 1% IN DIET FOR 30 WK BEGINNING POST CARCINOGEN TREATMENT (STUDY DURATION: 32 WK), Route [Inhibitor]: ORAL, Species: RAT, Strain/Sex: F344/MALE, Target Tissue: Type of Lesion: THYROID: CARCINOMA, Dose [Carcinogen]: 0.1% IN DRINKING WATER FOR 2 WK
  tumour outcome (control, treated, inhibition, significance): 20%, 15%, 25%, not calculated
Carcinogen: N-METHYL-N'-NITRO-N-NITROSOGUANIDINE, 70-25-7, N-ETHYL-N-HYDROXYETHYLNITROSAMINE, 13147-25-6, N-METHYLBENZYLNITROSAM, Carcinogen: N-METHYL-N'-NITRO-N-NITROSOGUANIDINE, 70-25-7, N-ETHYL-N-HYDROXYETHYLNITROSAMINE, 13147-25-6, N-METHYLBENZYLNITROSAM, Dose [Inhibitor]: 0, 0.7% IN DIET FOR 36 WK (STUDY DURATION: 36 WK), Route [Inhibitor]: ORAL, Species: RAT, Strain/Sex: F344/MALE, Target Tissue: Type of Lesion: COLON: CARCINOMA, Dose [Carcinogen]: 100 MG/KG BW MNNG ONCE, 750 MG/KG BW EHEN ONCE, 0.5 MG/KG BW MBN TWICE, 40 MG/KG BW DMH 4 TIMES, 0.05% DBN IN DRINKING W
  tumour outcome (control, treated, inhibition, significance): 10/18 (56%), 0/18 (0%), 100%, p<0.01
Carcinogen: N-METHYL-N'-NITRO-N-NITROSOGUANIDINE, 70-25-7, N-ETHYL-N-HYDROXYETHYLNITROSAMINE, 13147-25-6, N-METHYLBENZYLNITROSAM, Carcinogen: N-METHYL-N'-NITRO-N-NITROSOGUANIDINE, 70-25-7, N-ETHYL-N-HYDROXYETHYLNITROSAMINE, 13147-25-6, N-METHYLBENZYLNITROSAM, Dose [Inhibitor]: 0, 0.7% IN DIET FOR 36 WK (STUDY DURATION: 36 WK), Route [Inhibitor]: ORAL, Species: RAT, Strain/Sex: F344/MALE, Target Tissue: Type of Lesion: KIDNEY: RENAL CELL TUMOR, Dose [Carcinogen]: 100 MG/KG BW MNNG ONCE, 750 MG/KG BW EHEN ONCE, 0.5 MG/KG BW MBN TWICE, 40 MG/KG BW DMH 4 TIMES, 0.05% DBN IN DRINKING W
  tumour outcome (control, treated, inhibition, significance): 8/18 (44%), 1/18 (6%), 86%, p<0.01
Carcinogen: N-METHYL-N'-NITRO-N-NITROSOGUANIDINE, 70-25-7, N-ETHYL-N-HYDROXYETHYLNITROSAMINE, 13147-25-6, N-METHYLBENZYLNITROSAM, Carcinogen: N-METHYL-N'-NITRO-N-NITROSOGUANIDINE, 70-25-7, N-ETHYL-N-HYDROXYETHYLNITROSAMINE, 13147-25-6, N-METHYLBENZYLNITROSAM, Dose [Inhibitor]: 0, 0.7% IN DIET FOR 36 WK (STUDY DURATION: 36 WK), Route [Inhibitor]: ORAL, Species: RAT, Strain/Sex: F344/MALE, Target Tissue: Type of Lesion: THYROID GLAND: ADENOMA OR CARCINOMA, Dose [Carcinogen]: 100 MG/KG BW MNNG ONCE, 750 MG/KG BW EHEN ONCE, 0.5 MG/KG BW MBN TWICE, 40 MG/KG BW DMH 4 TIMES, 0.05% DBN IN DRINKING W
  outcome: 0/18 (0%), 6/18 (33%), -333%, p<0.05
Carcinogen: N-METHYL-N-NITROSOUREA, 684-93-5, Dose [Inhibitor]: 0.3% IN DIET FROM WEANING ONWARD (STUDY DURATION: 6 MO AFTER CARCINOGEN ADMINISTRATION), Route [Inhibitor]: ORAL, Species: RAT, Strain/Sex: SPRAGUE-DAWLEY/FEMALE, Target Tissue: Type of Lesion: MAMMARY GLAND: ADENOCARCINOMA, Dose [Carcinogen]: SINGLE INJECTION VIA DORSAL TAIL VEIN AT 5 MG/100 G BODY WEIGHT. MNU WAS WET IN 3% ACETIC ACID + DISSOLVED IN WATER (DOU
  tumour outcome (control, treated, inhibition, significance): 21/30 (70%), 22/30 (73%), -4%, not significant
Carcinogen: N-METHYL-N-NITROSOUREA, 684-93-5, Dose [Inhibitor]: 0.3% IN HIGH POLYUNSATURATED FAT DIET DAILY STARTING 29 D BEFORE CARCINOGEN TREATMENT AND CONTINUING FOR THE DURATION OF, Route [Inhibitor]: ORAL, Species: RAT, Strain/Sex: SPRAGUE-DAWLEY/FEMALE, Target Tissue: Type of Lesion: MAMMARY GLAND: ADENOCARCINOMA, Dose [Carcinogen]: 5 MG/100 G BW ONCE AT 50 D OF AGE
  tumour outcome (control, treated, inhibition, significance): 70%, 73%, -4%, not calculated
Carcinogen: URETHANE, 51-79-6, Dose [Inhibitor]: 0.75% IN DIET 1/WK FOR 24 HR AFTER OVERNIGHT FAST FOR 8 WK 1 WK AFTER CARCINOGEN TREATMENT (STUDY DURATION: 4 MO), Route [Inhibitor]: ORAL, Species: MOUSE, Strain/Sex: STRAIN-A/MALE, Target Tissue: Type of Lesion: LUNG: TYPE II ALVEOLAR CELL TUMORS, CLARA CELL TUMORS, Dose [Carcinogen]: 250 MG/KG, ONCE AT 8 WK OF AGE
  tumour outcome (control, treated, inhibition, significance): 85%, 91%, -7%, not significant
Carcinogen: URETHANE, 51-79-6, Dose [Inhibitor]: 0.75% IN DIET 1/WK FOR 24 HR AFTER OVERNIGHT FAST FOR 8 WK 1 WK AFTER CARCINOGEN TREATMENT (STUDY DURATION: 4 MO), Route [Inhibitor]: ORAL, Species: MOUSE, Strain/Sex: STRAIN-A/MALE, Target Tissue: Type of Lesion: LUNG: TYPE II ALVEOLAR CELL TUMORS, CLARA CELL TUMORS, Dose [Carcinogen]: 500 MG/KG, ONCE AT 8 WK OF AGE
  tumour outcome (control, treated, inhibition, significance): 100%, 100%, 0%, not significant
Carcinogen: URETHANE, 51-79-6, Dose [Inhibitor]: 0.75% IN DIET 1/WK FOR 24 HR AFTER OVERNIGHT FAST FOR 8 WK BEGINNING 1 WK POST CARCINOGEN TREATMENT (STUDY DURATION: 4 M, Route [Inhibitor]: ORAL, Species: MOUSE, Strain/Sex: STRAIN A/MALE, Target Tissue: Type of Lesion: LUNG: TYPE II ALVEOLAR CELL TUMORS, CLARA CELL TUMORS, Dose [Carcinogen]: 500 MG/KG, ONCE AT 8 WK OF AGE
  tumour outcome (control, treated, inhibition, significance): 100%, 97%, 3%, not significant
Carcinogen: URETHANE, 51-79-6, Dose [Inhibitor]: 0.75% IN DIET FOR 2 WK BEFORE CARCINOGEN TREATMENT (STUDY DURATION: 4 MO), Route [Inhibitor]: ORAL, Species: MOUSE, Strain/Sex: STRAIN-A/MALE, Target Tissue: Type of Lesion: LUNG: TYPE II ALVEOLAR CELL TUMORS, CLARA CELL TUMORS, Dose [Carcinogen]: 1000 MG/KG, ONCE
  outcome: 100%, 100%, o%, not significant
Carcinogen: URETHANE, 51-79-6, Dose [Inhibitor]: 0.75% IN DIET, DAILY BEGINNING 1 D AFTER CARCINOGEN TREATMENT FOR 8 WK (STUDY DURATION: 4 MO), Route [Inhibitor]: ORAL, Species: MOUSE, Strain/Sex: STRAIN-A/MALE, Target Tissue: Type of Lesion: LUNG: TYPE II ALVEOLAR CELL TUMORS, CLARA CELL TUMORS, Dose [Carcinogen]: 250 MG/KG, ONCE AT 8 WK OF AGE
  tumour outcome (control, treated, inhibition, significance): 96%, 90%, 6%, not significant
Carcinogen: URETHANE, 51-79-6, Dose [Inhibitor]: 0.75% IN DIET, DAILY BEGINNING 1 D AFTER CARCINOGEN TREATMENT FOR 8 WK (STUDY DURATION: 40 MO), Route [Inhibitor]: ORAL, Species: MOUSE, Strain/Sex: STRAIN-A/MALE, Target Tissue: Type of Lesion: LUNG: TYPE II ALVEOLAR CELL TUMORS, CLARA CELL TUMORS, Dose [Carcinogen]: 500 MG/KG, ONCE AT 8 WK OF AGE
  tumour outcome (control, treated, inhibition, significance): 100%, 100%, 0%, not significant
Carcinogen: URETHANE, 51-79-6, Dose [Inhibitor]: 300 MG/KG 1 WK AFTER CARCINOGEN DOSE 1/WK FOR 8 WK (STUDY DURATION: 4 MO), Route [Inhibitor]: INTRAPERITONEAL, Species: MOUSE, Strain/Sex: STRAIN-A/MALE, Target Tissue: Type of Lesion: LUNG: TYPE II ALVEOLAR CELL TUMORS, CLARA CELL TUMORS, Dose [Carcinogen]: 500 MG/KG, ONCE AT 8 WK OF AGE
  tumour outcome (control, treated, inhibition, significance): 97%, 100%, -3%, not significant
